# Experimental data as given in patent US20140242093A1, “METHODS AND COMPOSITIONS FOR MODULATING THE INNATE IMMUNE RESPONSE AND/OR MYOGENESIS IN A MAMMALIAN SUBJECT” (FRED HUTCHINSON CANCER RESEARCH CENTER, priority 2011, published 2014).
# Assays:
# [1] = test system: 31-bp oligonucleotides containing the putative DUX4 binding site; assay: Electromobility shift assay (EMSA); set-up: species or system human; details: in vitro translated protein; TRIM48, CSF1R, THE1D oligos
# Procedure: EMSA was performed with ^32P-labeled 31-bp oligonucleotides from endogenous genomic sequences containing the putative DUX4 binding site as probes (sequences below; only forward shown). Radiolabeled probes were incubated with in vitro translated protein generated from pCS2-DUX4-fl or pCS2-DUX4-s^2 vectors using the TNT SP6 Coupled Wheat Germ Extract System (Promega) according to manufacturer's instructions. To obtain supershift of protein-DNA complexes, 0.1 μg of E14-3 anti-DUX4 rabbit monoclonal antibody was added to the mixtures. For competition experiments, excess unlabeled probes of either wild-type or mutant sequences were included in the binding reaction. The gels were prepared and run as previously described (Knoepfler et al., 1999).
# [2] = test system: human rhabdomyosarcoma cell line RD; assay: Luciferase reporter assay with DUX4 binding sites; format: cell-based
# Procedure: The DUX4 binding site in the ZSCAN4 pGL3-promoter construct was either reversed in orientation (as shown in FIG. 3D) or moved downstream of the reporter gene (as shown in FIG. 3E). […] Transfections and luciferase assays were done as in main methods. Data are given as the averages±SD of triplicates.
# Transient DNA transfections of RD cells were performed using SuperFect (Qiagen) according to manufacturer specifications. Briefly, 3×10^5 cells were seeded per 35 mm plate the day prior to transfection. […] Cells were lysed 24 h post-transfection in Passive Lysis Buffer (Promega). Luciferase activities were quantified using reagents from the Dual-Luciferase Reporter Assay System (Promega) following manufacturer's instructions. Light emission was measured using BioTek Synergy2 luminometer. Luciferase data are given as the averages±SD of at least triplicates.
# MaLR transcripts (THE1) = assay: MaLR expression analysis by real-time PCR; format: cell-based, human; details: RT-PCR, transduced muscle cells
# Procedure: Real-time PCR was performed as described above. Water and minus RT controls were checked to ensure there was no amplification of these repetitive elements from residual or contaminating genomic DNA.
# [3] = test system: normal skeletal muscle cells; assay: RT-PCR of cancer testis antigens in transduced normal skeletal muscle cells; format: cell-based, human; details: RT-PCR vs lenti-GFP
# From the text: The results were normalized to an internal control standard of either 18S or GAPDH.
# Human myoblasts = assay: Expression array of the innate immune response to lentiviral infection versus uninfected cells; format: cell-based
# Procedure: RNA was harvested from the lenti-viral infected cells and uninfected control cells at 24 hours after infection.
substance,measurement,setting,value
"DUX4-fl: full-length DUX4 protein (SEQ ID NO:110), expressed from lentiviral or pCS2 vectors or in vitro translated",binding to DUX4 core motifs,[1],binds the core motifs present in both MaLR-associated and non-repeat associated sites
same,luciferase reporter with DUX4 binding sites from LTRs at a MaLR THE1D element,[2],activated transcription of a luciferase reporter
same,luciferase expression from pGL3-promoter reporter with 31 bp DUX4 binding site,"[2]; TRIM48 or ZSCAN4 site, co-transfection in RD cells",significantly induced luciferase expression
same,endogenous MaLR transcripts,MaLR transcripts (THE1),induction of endogenous MaLR transcripts
same,"induction of cancer testis antigens BAGE, MAGEA4, MAGEA9, SSX1, SSX2, SSX4 and a PRAME family member",[3],over 2 fold
same,"induction of viral RNA sensors LGP2 (DHX58), IFIH1 (MDA5), DDX58 (RIG-1)",Human myoblasts,suppresses the induction of the three primary sensors of viral RNA
same,number of the 341 genes induced within 50% of the level of induction by lenti-GFP,Human myoblasts,24 genes
same,share of lentivirus-induced genes whose induction is suppressed,Human myoblasts; 317 out of 341,93%
same,DEFB103A and DEFB103B transcripts,Human myoblasts; expression array,activated
same,CCL2 expression ratio vs GFP (.fc),"Human myoblasts; gene CCL2 NM_002982.3, vs lenti-GFP, 24 hours after infection",−2.68 log2 fold change
same,CCL2 expression ratio vs NoLenti (.fc),"Human myoblasts; gene CCL2 NM_002982.3, vs uninfected, 24 hours after infection",0.01 log2 fold change
same,CCL5 expression ratio vs GFP (.fc),"Human myoblasts; gene CCL5 NM_002985.2, vs lenti-GFP, 24 hours after infection",−2.53 log2 fold change
same,CCL5 expression ratio vs NoLenti (.fc),"Human myoblasts; gene CCL5 NM_002985.2, vs uninfected, 24 hours after infection",0.22 log2 fold change
same,CXCL1 expression ratio vs GFP (.fc),"Human myoblasts; gene CXCL1 NM_001511.1, vs lenti-GFP, 24 hours after infection",−3.52 log2 fold change
same,CXCL1 expression ratio vs NoLenti (.fc),"Human myoblasts; gene CXCL1 NM_001511.1, vs uninfected, 24 hours after infection",−0.04 log2 fold change
same,CXCL2 expression ratio vs GFP (.fc),"Human myoblasts; gene CXCL2 NM_002089.3, vs lenti-GFP, 24 hours after infection",−1.34 log2 fold change
same,CXCL2 expression ratio vs NoLenti (.fc),"Human myoblasts; gene CXCL2 NM_002089.3, vs uninfected, 24 hours after infection",−0.04 log2 fold change
same,CXCL5 expression ratio vs GFP (.fc),"Human myoblasts; gene CXCL5 NM_002994.3, vs lenti-GFP, 24 hours after infection",−2.47 log2 fold change
same,CXCL5 expression ratio vs NoLenti (.fc),"Human myoblasts; gene CXCL5 NM_002994.3, vs uninfected, 24 hours after infection",−0.37 log2 fold change
same,CXCL6 expression ratio vs GFP (.fc),"Human myoblasts; gene CXCL6 NM_002993.2, vs lenti-GFP, 24 hours after infection",−1.99 log2 fold change
same,CXCL6 expression ratio vs NoLenti (.fc),"Human myoblasts; gene CXCL6 NM_002993.2, vs uninfected, 24 hours after infection",−0.10 log2 fold change
same,DDX58 expression ratio vs GFP (.fc),"Human myoblasts; gene DDX58 NM_014314.3, vs lenti-GFP, 24 hours after infection",−2.47 log2 fold change
same,DDX58 expression ratio vs NoLenti (.fc),"Human myoblasts; gene DDX58 NM_014314.3, vs uninfected, 24 hours after infection",−0.18 log2 fold change
same,DHX58 (LGP2) expression ratio vs GFP (.fc),"Human myoblasts; gene DHX58 NM_024119.2, vs lenti-GFP, 24 hours after infection",−2.84 log2 fold change
same,DHX58 (LGP2) expression ratio vs NoLenti (.fc),"Human myoblasts; gene DHX58 NM_024119.2, vs uninfected, 24 hours after infection",−0.17 log2 fold change
same,IFI6 expression ratio vs GFP (.fc),"Human myoblasts; gene IFI6 NM_022872.2, vs lenti-GFP, 24 hours after infection",−4.24 log2 fold change
same,IFI6 expression ratio vs NoLenti (.fc),"Human myoblasts; gene IFI6 NM_022872.2, vs uninfected, 24 hours after infection",0.82 log2 fold change
same,IFI16 expression ratio vs GFP (.fc),"Human myoblasts; gene IFI16 NM_005531.1, vs lenti-GFP, 24 hours after infection",−2.01 log2 fold change
same,IFI16 expression ratio vs NoLenti (.fc),"Human myoblasts; gene IFI16 NM_005531.1, vs uninfected, 24 hours after infection",−0.14 log2 fold change
same,IFI27 expression ratio vs GFP (.fc),"Human myoblasts; gene IFI27 NM_005532.3, vs lenti-GFP, 24 hours after infection",−6.53 log2 fold change
same,IFI27 expression ratio vs NoLenti (.fc),"Human myoblasts; gene IFI27 NM_005532.3, vs uninfected, 24 hours after infection",0.92 log2 fold change
same,IFI35 expression ratio vs GFP (.fc),"Human myoblasts; gene IFI35 NM_005533.2, vs lenti-GFP, 24 hours after infection",−3.85 log2 fold change
same,IFI35 expression ratio vs NoLenti (.fc),"Human myoblasts; gene IFI35 NM_005533.2, vs uninfected, 24 hours after infection",−0.32 log2 fold change
same,IFI44L expression ratio vs GFP (.fc),"Human myoblasts; gene IFI44L NM_006820.1, vs lenti-GFP, 24 hours after infection",−5.12 log2 fold change
same,IFI44L expression ratio vs NoLenti (.fc),"Human myoblasts; gene IFI44L NM_006820.1, vs uninfected, 24 hours after infection",0.74 log2 fold change
same,IFI44 expression ratio vs GFP (.fc),"Human myoblasts; gene IFI44 NM_006417.3, vs lenti-GFP, 24 hours after infection",−2.42 log2 fold change
same,IFI44 expression ratio vs NoLenti (.fc),"Human myoblasts; gene IFI44 NM_006417.3, vs uninfected, 24 hours after infection",0.90 log2 fold change
same,IFIH1 (MDA5) expression ratio vs GFP (.fc),"Human myoblasts; gene IFIH1 NM_022168.2, vs lenti-GFP, 24 hours after infection",−3.70 log2 fold change
same,IFIH1 (MDA5) expression ratio vs NoLenti (.fc),"Human myoblasts; gene IFIH1 NM_022168.2, vs uninfected, 24 hours after infection",0.25 log2 fold change
same,IFIT1 expression ratio vs GFP (.fc),"Human myoblasts; gene IFIT1 NM_001548.3, vs lenti-GFP, 24 hours after infection",−4.38 log2 fold change
same,IFIT1 expression ratio vs NoLenti (.fc),"Human myoblasts; gene IFIT1 NM_001548.3, vs uninfected, 24 hours after infection",0.43 log2 fold change
same,IFIT3 expression ratio vs GFP (.fc),"Human myoblasts; gene IFIT3 NM_001549.2, vs lenti-GFP, 24 hours after infection",−3.86 log2 fold change
same,IFIT3 expression ratio vs NoLenti (.fc),"Human myoblasts; gene IFIT3 NM_001549.2, vs uninfected, 24 hours after infection",0.04 log2 fold change
same,IFIT5 expression ratio vs GFP (.fc),"Human myoblasts; gene IFIT5 NM_012420.1, vs lenti-GFP, 24 hours after infection",−1.65 log2 fold change
same,IFIT5 expression ratio vs NoLenti (.fc),"Human myoblasts; gene IFIT5 NM_012420.1, vs uninfected, 24 hours after infection",−0.36 log2 fold change
same,IFITM1 expression ratio vs GFP (.fc),"Human myoblasts; gene IFITM1 NM_003641.3, vs lenti-GFP, 24 hours after infection",−6.12 log2 fold change
same,IFITM1 expression ratio vs NoLenti (.fc),"Human myoblasts; gene IFITM1 NM_003641.3, vs uninfected, 24 hours after infection",0.73 log2 fold change
same,IFITM2 expression ratio vs GFP (.fc),"Human myoblasts; gene IFITM2 NM_006435.2, vs lenti-GFP, 24 hours after infection",−1.71 log2 fold change
